What was measured:
[1] = target: T1, GTPase KRas (Homo sapiens, UniProt P01116, G12C); experiment: Inhibition of KRAS G12C mutant (unknown origin) assessed as inhibition of SOS1 mediated nucleotide exchange incubated for 2 hrs in presence of GppNHp by fluorescence based analysis
[2] = target: T1, GTPase KRas; experiment: Inhibition of KRAS G12C mutant in human MIA PaCa-2 cells assessed as reduction in pERK level incubated for 4 hrs by HTRF assay; type: cell-based
[3] = target: T1, GTPase KRas; experiment: Inhibition of KRAS G12C mutant in human MIA PaCa-2 cells assessed as reduction in whole blood pERK level incubated for 4 hrs by HTRF assay; type: cell-based

T1 sequence (P01116 whole entry G12C): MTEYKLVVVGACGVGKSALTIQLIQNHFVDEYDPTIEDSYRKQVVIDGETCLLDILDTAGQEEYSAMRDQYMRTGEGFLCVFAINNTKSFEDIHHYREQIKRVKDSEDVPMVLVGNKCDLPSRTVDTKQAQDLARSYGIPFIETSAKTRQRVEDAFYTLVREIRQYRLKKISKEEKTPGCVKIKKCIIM

| Compound | IC50 [1] [nM] | IC50 [2] [nM] | IC50 [3] [nM] |
| --- | --- | --- | --- |
| COC/C=C/C(=O)N1CC[C@H](n2nnc3c(O[C@@H](C)[C@@H]4CCCN4C)nc4c(F)c(-c5ncc(F)c6ccccc56)c(C)cc4c32)C[C@H]1CC#N | ≤ 50 | ≤ 50 | ≤ 50 |
| Cc1cccc(-c2c(C)cc3c(nc(N4CC(C)(N(C)C)C4)c4nnn([C@H]5CCN(C(=O)/C=C/CF)[C@H](CC#N)C5)c43)c2F)c1Cl | ≤ 50 | ≤ 50 | ≤ 50 |
| COC/C=C/C(=O)N1CC[C@H](n2nnc3c(O[C@@H](C)[C@@H]4CCCN4C)nc4c(F)c(-c5ccc(F)cc5)c(C)cc4c32)C[C@H]1CC#N | ≤ 50 | ≤ 50 | ≤ 50 |

Continued, values first:

| IC50 [1] [nM] | IC50 [2] [nM] | IC50 [3] [nM] | Compound |
| --- | --- | --- | --- |
| ≤ 50 | ≤ 50 | ≤ 50 | COC/C=C/C(=O)N1CC[C@H](n2nnc3c(O[C@@H](C)[C@@H]4CCCN4C)nc4c(F)c(-c5nn(C)c6ccccc56)c(C)cc4c32)C[C@H]1CC#N |
| ≤ 50 | ≤ 50 | ≤ 50 | C=C(F)C(=O)N1CC[C@H](n2nnc3c(O[C@@H](C)[C@@H]4CCCN4C)nc4c(F)c(-c5ncc(F)c6ccccc56)c(C)cc4c32)C[C@H]1CC#N |
| ≤ 50 | ≤ 50 | ≤ 50 | Cc1cc2c(nc(O[C@@H](C)[C@@H]3CCCN3C)c3nnn([C@H]4CCN(C(=O)/C=C/CF)[C@H](CC#N)C4)c32)c(F)c1-c1ccc2cnn(C)c2c1 |

Source: ChEMBL document CHEMBL5257148, “Novel Tricyclic Compounds as KRAS Inhibitors for Treating Cancer” (ACS Med Chem Lett, 2023)
